Measured values reported in patent publication US4118491A, “7-Acyl-3-(sulfaminoalkyl substituted tetrazolylthiomethyl)cephalosporins, antibacterial compositions containing them and methods of treating bacterial infections with them” (SmithKline Corporation, priority 1976, dated 1978).
Values after ≈ are worked out from the molar mass of the structure shown. Read-outs that look alike come from different tables or passages of the source.

How the values were obtained:
S. aureus HH 127 = assay: MIC in vitro, S. aureus HH 127; type: cell-based; conditions: Staphylococcus aureus
Description: (§1) The compounds of Formula I have antibacterial activity against both Gram-positive and Gram-negative organisms. Minimum inhibitory concentrations (MIC's) range from 0.2 to >200 μg/ml in in vitro testing.

S. aureus SK 23390 = assay: MIC in vitro, S. aureus SK 23390; type: cell-based; conditions: Staphylococcus aureus
Description: as §1

Pseudo. aerug. HH 63 = assay: MIC in vitro, Pseudo. aerug. HH 63; type: cell-based
Description: as §1

E. coli SK 12140 [1] = assay: In vivo mouse protection, E. coli SK 12140; conditions: Escherichia coli
Description: as §1

Kleb. pneumo. SK 4200 [2] = assay: MIC in vitro, Kleb. pneumo. SK 4200; type: cell-based
Description: as §1

Kleb. pneumo. SK 4200 [3] = assay: In vivo mouse protection, Kleb. pneumo. SK 4200; conditions: sc, Kleb. pneumo. SK 4200, s.c.
Strep. faecalis HH 34358 = assay: MIC in vitro, Strep. faecalis HH 34358; type: cell-based; conditions: for MIC: Enterococcus faecalis, HH34358, Strep. faecalis HH 34358
Description: as §1

Proteus morgani 179 = assay: MIC in vitro, Proteus morgani 179; type: cell-based
Description: as §1

E. coli SK 12140 [4] = assay: MIC in vitro, E. coli SK 12140; type: cell-based; conditions: Escherichia coli
Description: as §1

Entero. cloacae HH 31254 = assay: MIC in vitro, Entero. cloacae HH 31254; type: cell-based; conditions: Enterobacter cloacae
Description: as §1

Shigella HH 117 = assay: MIC in vitro, Shigella HH 117; type: cell-based; conditions: for MIC: Shigella, HH117, Shigella HH 117
Description: as §1

[5] = system: Serrati A marc. ATTC 13880; assay: MIC in vitro, Serrati A marc. ATTC 13880; type: cell-based
Description: as §1

Kleb. pneumo. SK 1200 = assay: MIC in vitro, Kleb. pneumo. SK 1200; type: cell-based
Description: as §1

[6] = system: Entero. aerog. ATTC 13048; assay: MIC in vitro, Entero. aerog. ATTC 13048; type: cell-based
Description: as §1

E. coli HH 33779 = assay: MIC in vitro, E. coli HH 33779; type: cell-based; conditions: for MIC: Escherichia coli
Description: as §1

Salmonella ATCC 12176 = assay: MIC in vitro, Salmonella ATCC 12176; type: cell-based; conditions: ATCC12176, Salmonella ATCC 12176
Description: as §1

S. villaluz SK 70390 = assay: MIC in vitro, S. villaluz SK 70390; type: cell-based
Description: as §1

[7] = SK23390, S. aureus SK 23390, read-out: MIC in vitro
[8] = SK12140, po, E. coli SK 12140, p.o.
[9] = SK12140, sc, E. coli SK 12140, s.c.
[10] = SK12140, E. coli SK 12140, read-out: MIC in vitro
[11] = HH31254, Entero. cloacae HH 31254, read-out: MIC in vitro
[12] = read-out: MIC in vitro, Kleb. pneumo. SK 1200
[13] = Entero. aerog. ATTC 13048, read-out: MIC in vitro
[14] = read-out: MIC in vitro, Entero. aerog. ATTC 13048
[15] = HH33779, E. coli HH 33779, read-out: MIC in vitro
[16] = HH127, S. aureus HH 127, read-out: MIC in vitro

Compound	MIC (S. aureus HH 127; HH127, read-out: MIC in vitro) [µg/mL]	MIC (S. aureus SK 23390; [7]) [µg/mL]	MIC (Pseudo. aerug. HH 63) [µg/mL]	ED50 (E. coli SK 12140 [1]; [8]) [mg/kg]	ED50 (E. coli SK 12140 [1]; [9]) [mg/kg]	MIC (Kleb. pneumo. SK 4200 [2]) [µg/mL]	MIC (Strep. faecalis HH 34358) [µg/mL]	MIC (E. coli SK 12140 [4]; [10]) [µg/mL]	MIC (Entero. cloacae HH 31254; [11]) [µg/mL]	MIC (Shigella HH 117) [µg/mL]	MIC [5] [µg/mL]	MIC (Kleb. pneumo. SK 1200; [12]) [µg/mL]	MIC [6, 13] [µg/mL]	MIC [6, 14] [µg/mL]	MIC (E. coli HH 33779; [15]) [µg/mL]	MIC (S. aureus HH 127; [16]) [µg/mL]	MIC (Proteus morgani 179) [µg/mL]	MIC (Salmonella ATCC 12176) [µg/mL]	MIC (S. villaluz SK 70390) [µg/mL]	other results
O=C(O)C1=C(CSc2nnnn2CCNS(=O)(=O)O)CSC2C(NC(=O)[C@H](O)c3ccccc3)C(=O)N12 (stereo partly drawn) [Compound 1, 7-D-mandelamido-3-[1-(2-sulfaminoethyl)tetrazol-5-ylthiomethyl]-3-cephem-4-carboxylic acid]	3.1 (≈ 5.42 µM)	0.8 (≈ 1.4 µM)	> 200	50	0.46	1.6 (≈ 2.8 µM)	100 (≈ 175 µM)	0.8 (≈ 1.4 µM)	1.6 (≈ 2.8 µM)	0.4 (≈ 0.7 µM)	100 (≈ 175 µM)	0.4 (≈ 0.7 µM)	50 (≈ 87.5 µM)	6.3 (≈ 11 µM)	3.1 (≈ 5.42 µM)					MIC in vitro (Kleb. pneumo. SK 4200 [2]): 0.8 µg/mL (≈ 1.4 µM); ED50 (Kleb. pneumo. SK 4200 [3]): 0.46 mg/kg; MIC in vitro (Strep. faecalis HH 34358; Strep. faecalis HH 34358): 50 µg/mL (≈ 87.5 µM); MIC in vitro (Proteus morgani 179): 3.1 µg/mL (≈ 5.42 µM); MIC in vitro (Shigella HH 117; Shigella HH 117): 0.2 µg/mL (≈ 0.35 µM); MIC in vitro (Kleb. pneumo. SK 1200; Kleb. pneumo. SK 1200): 0.2 µg/mL (≈ 0.35 µM); MIC in vitro (E. coli HH 33779; E. coli HH 33779): 1.6 µg/mL (≈ 2.8 µM)
O=C(Cc1cccs1)NC1C(=O)N2C(C(=O)O)=C(CSc3nnnn3CCNS(=O)(=O)O)CSC12 (stereo not shown) [Compound 2, 7-(2-thienylacetamido)-3-[1-(2-sulfaminoethyl)tetrazol-5-ylthiomethyl]-3-cephem-4-carboxylic acid]			> 200	> 50	1.02	3.1 (≈ 5.52 µM)	12.5 (≈ 22.3 µM)		6.3 (≈ 11.2 µM)		> 200		25 (≈ 44.5 µM)		12.5 (≈ 22.3 µM)	1.6 (≈ 2.85 µM)	> 200	12.5 (≈ 22.3 µM)		MIC (S. aureus SK 23390; SK23390, read-out: MIC in vitro): 0.4 µg/mL (≈ 0.712 µM); MIC (E. coli SK 12140 [4]; SK12140, read-out: MIC in vitro): 3.1 µg/mL (≈ 5.52 µM); MIC (Kleb. pneumo. SK 1200; Kleb. pneumo. SK 1200, read-out: MIC in vitro): 0.8 µg/mL (≈ 1.42 µM)
O=C(Cn1cnnn1)NC1C(=O)N2C(C(=O)O)=C(CSc3nnnn3CCNS(=O)(=O)O)CSC12 (stereo not shown) [Compound 3, 7-(1-tetrazolylacetamido)-3-[1-(2-sulfaminoethyl)tetrazol-5-ylthiomethyl]-3-cephem-4-carboxylic acid]	3.1 (≈ 5.66 µM)	3.1 (≈ 5.66 µM)	> 200		1.56	0.8 (≈ 1.46 µM)	50 (≈ 91.3 µM)	0.8 (≈ 1.46 µM)		0.4 (≈ 0.731 µM)	200 (≈ 365 µM)	0.4 (≈ 0.731 µM)		3.1 (≈ 5.66 µM)			200 (≈ 365 µM)	0.4 (≈ 0.731 µM)	> 200	MIC (Entero. cloacae HH 31254; HH31254, read-out: MIC in vitro): 0.8 µg/mL (≈ 1.46 µM); MIC (E. coli HH 33779; HH33779, read-out: MIC in vitro): 0.8 µg/mL (≈ 1.46 µM)
O=C(CSC(F)(F)F)NC1C(=O)N2C(C(=O)O)=C(CSc3nnnn3CCNS(=O)(=O)O)CSC12 (stereo not shown) [Compound 4, 7-trifluoromethylthioacetamido-3-[1-(2-sulfaminoethyl)tetrazol-5-ylthiomethyl]-3-cephem-4-carboxylic acid]		1.6 (≈ 2.76 µM)	> 200	50	1.82	0.8 (≈ 1.38 µM)	100 (≈ 173 µM)	0.8 (≈ 1.38 µM)	1.6 (≈ 2.76 µM)	0.8 (≈ 1.38 µM)	100 (≈ 173 µM)	0.2 (≈ 0.345 µM)		6.3 (≈ 10.9 µM)	1.6 (≈ 2.76 µM)	1.6 (≈ 2.76 µM)	> 200	0.4 (≈ 0.69 µM)	> 200	
